Experimental data published in patent US12528790B2, “Amide derivative having antiviral activity” (Shionogi & Co., Ltd., priority 2020, dated 2026).
Read-outs that look alike come from different tables or passages of the source.

Assays:
[1] = test system: RSV B (Wash/18537 strain); experiment: In vitro CPE (CytoPathic Effect) inhibition effect evaluation test, RSV type B; type: cell-based; conditions: inhibitory effect against RSV type B, CPE inhibition, read-out: EC50
Outline: (§1)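 EC50 is the concentration giving 50% inhibition of virus-induced cytopathic effect, fitted by nonlinear regression from CellTiter-Glo 2.0 viability. Compounds in 3-fold series were co-incubated at 37 °C with HEp-2 cells and RSV: A2 strain for 4 days, B (Wash/18537) for 5 days; uninfected wells served as control.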

[2] = test system: RSV A2 strain; experiment: In vitro CPE (CytoPathic Effect) inhibition effect evaluation test, RSV type A; type: cell-based; conditions: inhibitory effect against RSV type A (RSV A2 strain), HEp-2 cells, CPE inhibition, read-out: EC50
Outline: as §1

[3] = human respiratory syncytial virus

| SMILES | EC50 [1, 3] | EC50 [2, 3] | EC50 [1] | EC50 [2] |
| --- | --- | --- | --- | --- |
| CC(F)(F)CN1CCC(Oc2ccc3c(-c4ccc(C(=O)NC5(C(=O)O)C6CC7CC(C6)CC5C7)c(C(F)(F)F)n4)cn(C4CCC(F)(F)CC4)c3c2)CC1 (centres unmarked) [Compound I-512] | 0.01 to 0.1 µM | < 0.01 µM | – | – |
| O=C(NC1(C(=O)O)C2CC3CC(C2)CC1C3)c1ccc(-c2cn(C3CC3)c3cc(O[C@H]4CC[C@H](N5CC(F)(F)C5)CC4)ccc23)nc1C(F)(F)F (some centres unmarked) [Compound I-513] | < 0.01 µM | < 0.01 µM | – | – |
| O=C(NC1(C(=O)O)C2CC3CC(C2)CC1C3)c1ccc(-c2cn(C3CCC(F)(F)CC3)c3cc(O[C@H]4CC[C@@H](N5CC(F)(F)C5)CC4)ccc23)nc1C(F)(F)F (some centres unmarked) [Compound I-514] | 0.01 to 0.1 µM | < 0.01 µM | – | – |
| O=C(NC1(C(=O)O)C2CC3CC(C2)CC1C3)c1cnc(N2CC3(CCCCC3)c3cc(OC4CCN(CC(F)(F)F)C4)ccc32)nc1C(F)(F)F (centres unmarked) [Compound I-517] | 0.01 to 0.1 µM | < 0.01 µM | – | – |
| O=C(NC1(C(=O)O)C2CC3CC(C2)CC1C3)c1cnc(N2CC3(CCCCC3)c3cc(O[C@@H]4CCN(CC(F)(F)F)C4)ccc32)nc1C(F)(F)F (some centres unmarked) [Compound I-518] | < 0.01 µM | < 0.01 µM | – | – |
| O=C(NC1(C(=O)O)C2CC3CC(C2)CC1C3)c1cnc(N2CC3(CCCCC3)c3cc(OC4CCN(c5ncco5)CC4)ccc32)nc1C(F)(F)F (centres unmarked) [Compound I-519] | < 0.01 µM | < 0.01 µM | – | – |
| N#Cc1cnc(N2CCC(Oc3ccc4c(c3)C3(CCCCC3)CN4c3ncc(C(=O)NC4(C(=O)O)C5CC6CC(C5)CC4C6)c(C(F)(F)F)n3)CC2)nc1 (centres unmarked) [Compound I-520] | < 0.01 µM | < 0.01 µM | – | – |
| N#CCN1CCC(Oc2ccc3c(c2)C2(CCCCC2)CN3c2ncc(C(=O)NC3(C(=O)O)C4CC5CC(C4)CC3C5)c(C(F)(F)F)n2)CC1 (centres unmarked) [Compound I-521] | 0.01 to 0.1 µM | < 0.01 µM | – | – |
| COc1cnc(N2CCC(Oc3ccc4c(c3)C3(CCCCC3)CN4c3ncc(C(=O)NC4(C(=O)O)C5CC6CC(C5)CC4C6)c(C(F)(F)F)n3)CC2)nc1 (centres unmarked) [Compound I-522] | < 0.01 µM | < 0.01 µM | – | – |
| O=C(NC1(C(=O)O)C2CC3CC(C2)CC1C3)c1cnc(N2CC3(CCCCC3)c3cc(OC4CCN(c5cnccn5)CC4)ccc32)nc1C(F)(F)F (centres unmarked) [Compound I-523] | < 0.01 µM | < 0.01 µM | – | – |
| O=C(NC1(C(=O)O)C2CC3CC(C2)CC1C3)c1cnc(N2CC3(CCCCC3)c3cc(O[C@H]4CCN(c5ncc(F)cn5)C4)ccc32)nc1C(F)(F)F (some centres unmarked) [Compound I-524] | 0.1 to 5 µM | < 0.01 µM | – | – |
| O=C(NC1(C(=O)O)C2CC3CC(C2)CC1C3)c1cnc(N2CC3(CCCCC3)c3cc(O[C@@H]4CCN(c5ncc(F)cn5)C4)ccc32)nc1C(F)(F)F (some centres unmarked) [Compound I-525] | < 0.01 µM | < 0.01 µM | – | – |
| CC(F)(F)c1nc(N2CC3(CCOCC3)c3cc(OC4CCN(CC(F)(F)F)CC4)ncc32)ncc1C(=O)NC1(C(=O)O)C2CC3CC(C2)CC1C3 (centres unmarked) [Compound I-526] | < 0.01 µM | < 0.01 µM | – | – |
| CC(F)(F)c1nc(N2CC3(CCOCC3)c3cc(OC4CCC5(CC4)COC5)ccc32)ncc1C(=O)NC1(C(=O)O)C2CC3CC(C2)CC1C3 (centres unmarked) [Compound I-527] | < 0.01 µM | < 0.01 µM | – | – |
| CC(F)(F)c1nc(N2CC3(CCOCC3)c3cc(OC4CCN(CC#N)CC4)ccc32)ncc1C(=O)NC1(C(=O)O)C2CC3CC(C2)CC1C3 (centres unmarked) [Compound I-528] | 0.1 to 5 µM | < 0.01 µM | – | – |
| CC(F)(F)c1nc(N2CC3(CCOCC3)c3cc(OC4CCN(CCC(F)(F)F)CC4)ccc32)ncc1C(=O)NC1(C(=O)O)C2CC3CC(C2)CC1C3 (centres unmarked) [Compound I-529] | < 0.01 µM | < 0.01 µM | – | – |
| CC(F)(F)c1nc(-c2cn(C3CC3)c3cc(O[C@H]4CC[C@H](N5CC(F)(F)C5)CC4)ccc23)ncc1C(=O)NC1(C(=O)O)C2CC3CC(C2)CC1C3 (some centres unmarked) [Compound I-530] | < 0.01 µM | < 0.01 µM | – | – |
| O=C(NC1(C(=O)O)C2CC3CC(C2)CC1C3)c1cnc(-c2cn(C3CC4(CC4)C3)c3cc(O[C@H]4CC[C@H](N5CC(F)(F)C5)CC4)ccc23)nc1C(F)(F)F (some centres unmarked) [Compound I-531] | < 0.01 µM | < 0.01 µM | – | – |
| CC(F)(F)c1nc(N2CC3(CCOCC3)c3cc(OC4CCN(CC5COC5)CC4)ccc32)ncc1C(=O)NC1(C(=O)O)C2CC3CC(C2)CC1C3 (centres unmarked) [Compound I-532] | 0.01 to 0.1 µM | < 0.01 µM | – | – |
| CC(F)(F)c1nc(N2CC3(CCOCC3)c3cc(OC4CCN(CC5CC(F)(F)C5)CC4)ccc32)ncc1C(=O)NC1(C(=O)O)C2CC3CC(C2)CC1C3 (centres unmarked) [Compound I-533] | < 0.01 µM | < 0.01 µM | – | – |
| Cc1nnc(N2CCC(Oc3ccc4c(c3)C3(CCCCC3)CN4c3ncc(C(=O)NC4(C(=O)O)C5CC6CC(C5)CC4C6)c(C(F)(F)F)n3)CC2)o1 (centres unmarked) [Compound I-534] | < 0.01 µM | < 0.01 µM | – | – |
| CC(F)(F)c1nc(N2CC3(CCCCC3)c3cc(OC4CCN(c5nnc(C(F)(F)F)s5)CC4)ccc32)ncc1C(=O)NC1(C(=O)O)C2CC3CC(C2)CC1C3 (centres unmarked) [Compound I-535] | 0.01 to 0.1 µM | < 0.01 µM | – | – |

| SMILES | EC50 [1, 3] | EC50 [2, 3] | EC50 [1] | EC50 [2] |
| --- | --- | --- | --- | --- |
| CC(F)(F)c1nc(N2CC3(CCCCC3)c3cc(OC4CCN(c5nc(C(F)(F)F)ns5)CC4)ccc32)ncc1C(=O)NC1(C(=O)O)C2CC3CC(C2)CC1C3 (centres unmarked) [Compound I-536] | 0.01 to 0.1 µM | < 0.01 µM | – | – |
| COc1cnc(N2CCC(Oc3ccc4c(c3)C3(CCCCC3)CN4c3ncc(C(=O)NC4(C(=O)O)C5CC6CC(C5)CC4C6)c(C(F)(F)F)n3)CC2)cn1 (centres unmarked) [Compound I-537] | 0.01 to 0.1 µM | < 0.01 µM | – | – |
| CC(F)(F)c1nc(N2CC3(CCOCC3)c3cc(OC4CCC(N5CCC(F)(F)C5)CC4)ccc32)ncc1C(=O)NC1(C(=O)O)C2CC3CC(C2)CC1C3 (centres unmarked) [Compound I-538] | – | – | < 0.01 µM | < 0.01 µM |
| CC(F)(F)c1nc(N2CC3(CCCCC3)c3cc(OC4CCC(N5CCC(F)(F)C5)CC4)ccc32)ncc1C(=O)NC1(C(=O)O)C2CC3CC(C2)CC1C3 (centres unmarked) [Compound I-539] | – | – | 0.01 to 0.1 µM | < 0.01 µM |
| CC(F)(F)c1nc(N2CC3(CCCCC3)c3cc(OC4CCC(N5CCC(F)(F)C5)CC4)ccc32)ncc1C(=O)NC1(C(=O)O)C2CC3CC(C2)CC1C3 (centres unmarked) [Compound I-540] | – | – | 0.01 to 0.1 µM | < 0.01 µM |
| CC(F)(F)c1nc(N2CC3(CCOCC3)c3cc(OC4CCC(N5CCC(F)(F)C5)CC4)ccc32)ncc1C(=O)NC1(C(=O)O)C2CC3CC(C2)CC1C3 (centres unmarked) [Compound I-541] | – | – | < 0.01 µM | < 0.01 µM |
| CC(F)(F)c1nc(N2CC3(CCOCC3)c3cc(OC4CN(c5ncc(F)cn5)C4)ccc32)ncc1C(=O)NC1(C(=O)O)C2CC3CC(C2)CC1C3 (centres unmarked) [Compound I-542] | < 0.01 µM | < 0.01 µM | – | – |
| O=C(NC1(C(=O)O)C2CC3CC(C2)CC1C3)c1cnc(-c2cn(C3CC3)c3cc(O[C@H]4CC[C@@H](N5CC(F)(F)C5)CC4)ccc23)nc1C(F)(F)F (some centres unmarked) [Compound I-543] | < 0.01 µM | < 0.01 µM | – | – |
| CC(F)(F)CN1CCC(Oc2ccc3c(-c4ncc(C(=O)NC5(C(=O)O)C6CC7CC(C6)CC5C7)c(C(F)(F)F)n4)cn(C4CC4)c3c2)CC1 (centres unmarked) [Compound I-544] | 0.01 to 0.1 µM | < 0.01 µM | – | – |
| O=C(NC1(C(=O)O)C2CC3CC(C2)CC1C3)c1cnc(-c2cn(C3CCC(F)(F)CC3)c3cc(O[C@H]4CC[C@H](N5CC(F)(F)C5)CC4)ccc23)nc1C(F)(F)F (some centres unmarked) [Compound I-545] | < 0.01 µM | < 0.01 µM | – | – |
| CC(F)(F)c1nc(-c2cn(C3CCC(F)(F)CC3)c3cc(O[C@H]4CC[C@@H](N5CC(F)(F)C5)CC4)ccc23)ncc1C(=O)NC1(C(=O)O)C2CC3CC(C2)CC1C3 (some centres unmarked) [Compound I-546] | < 0.01 µM | < 0.01 µM | – | – |
| CC(F)(F)c1nc(-c2cn(C3CCOCC3)c3cc(O[C@H]4CC[C@@H](N5CC(F)(F)C5)CC4)ccc23)ncc1C(=O)NC1(C(=O)O)C2CC3CC(C2)CC1C3 (some centres unmarked) [Compound I-547] | < 0.01 µM | < 0.01 µM | – | – |
| CC(F)(F)CN1CCC(Oc2ccc3c(c2)C2(CCOCC2)CN3c2ncc(C(=O)NC3(C(=O)O)C4CC5CC(C4)CC3C5)c(C(C)(F)F)n2)CC1 (centres unmarked) [Compound I-548] | < 0.01 µM | < 0.01 µM | – | – |
| CC(F)(F)c1nc(N2CC3(CCOCC3)c3cc(OC4CCC5(CC4)CN(CC(F)(F)F)C5)ccc32)ncc1C(=O)NC1(C(=O)O)C2CC3CC(C2)CC1C3 (centres unmarked) [Compound I-549] | < 0.01 µM | < 0.01 µM | – | – |
| CC(F)(F)c1nc(N2CC3(CCCCC3)c3cc(OC4CCC5(CC4)CN(CC(F)(F)F)C5)ccc32)ncc1C(=O)NC1(C(=O)O)C2CC3CC(C2)CC1C3 (centres unmarked) [Compound I-550] | 0.01 to 0.1 µM | < 0.01 µM | – | – |
| CC(F)(F)c1nc(N2CC3(CCOCC3)c3cc(OC4CCN(C5CC(F)(F)C5)CC4)ccc32)ncc1C(=O)NC1(C(=O)O)C2CC3CC(C2)CC1C3 (centres unmarked) [Compound I-551] | < 0.01 µM | < 0.01 µM | – | – |
| CC(F)(F)c1nc(N2CC3(CCOCC3)c3cc(O[C@H]4CC[C@H](NCC(F)(F)F)CC4)ccc32)ncc1C(=O)NC1(C(=O)O)C2CC3CC(C2)CC1C3 (some centres unmarked) [Compound I-552] | < 0.01 µM | < 0.01 µM | – | – |
| CC(F)(F)c1nc(N2CC3(CCOCC3)c3cc(O[C@H]4CC[C@H](Nc5ncc(F)cn5)CC4)ccc32)ncc1C(=O)NC1(C(=O)O)C2CC3CC(C2)CC1C3 (some centres unmarked) [Compound I-553] | 0.01 to 0.1 µM | < 0.01 µM | – | – |
| CC(F)(F)c1nc(N2CC3(CCOCC3)c3cc(O[C@H]4CC[C@H](N5CC(F)(F)C5)CC4)ccc32)ncc1C(=O)N[C@]1(C(=O)O)[C@@H]2CC3C[C@H]1C[C@@](F)(C3)C2 [Compound I-554] | < 0.01 µM | < 0.01 µM | – | – |
| CC(F)(F)c1nc(N2CC3(CCCCC3)c3cc(O[C@H]4CC[C@H](N5CC(F)(F)C5)CC4)ncc32)ncc1C(=O)NC1(C(=O)O)C2CC3CC(C2)CC1C3 (some centres unmarked) [Compound I-555] | 0.01 to 0.1 µM | < 0.01 µM | – | – |
| CC(F)(F)c1nc(N2CC3(CCCCC3)c3cc(O[C@H]4CC[C@H](N5CC(F)(F)C5)CC4)ncc32)ncc1C(=O)N[C@]1(C(=O)O)[C@@H]2CC3C[C@H]1C[C@@](F)(C3)C2 [Compound I-556] | 0.01 to 0.1 µM | < 0.01 µM | – | – |
